Results taken from patent publication US20040152670A1, “Novel aminoindanes” (priority 1999, published 2004).
Read-outs that look alike come from different tables or passages of the source.

What was measured:
[1] = system: Group II/III metabotropic glutamate receptors (mGluRs); assay: Cyclic AMP assay in rat cortical slices (forskolin-induced cyclic AMP accumulation); assay type: cell-based, Sprague Dawley rat; settings: for Group II/III Agonist: inhibits forskolin-induced cyclic AMP accumulation; for Group II/III Agonist / Group II/III Antagonist: Yes/No; for Group II/III Antagonist: inhibits the glutamate-caused decrease in forskolin-induced cyclic AMP accumulation
Method: The assay of cyclic AMP formation can be performed as described previously (Tovey el al., Clinica Chimica Acta, 56, 221-234, 1974). The assay can be modelled on the cyclic AMP assay kit available from Amersham, which in turn, is based on the assay created by Tovey el al. Briefly, samples are prepared from Sprague Dawley rat (225-250 g) cortical slices. Slices are incubated with the drug, and then challenged with forskolin to induce cyclic AMP release. Following termination of the reaction by boiling, the slices are homogenized and centrifuged. Samples of supernatant are then incubated for 2-3 hours with a known quantity of [^3H]cAMP and a binding protein. When the incubation is complete, the bound cyclic AMP is separated from the free cyclic AMP by centrifugation with charcoal. The resulting supernatant (containing free cyclic AMP) is then analyzed by liquid scintillation counting. The amount of unbound cyclic AMP can be calculated from a standard curve previously determined with various samples of free cyclic AMP. Group II/III metabotropic glutamate receptors (mGluRs) are negatively coupled to adenylate cyclase, and agonists of these receptors lead to a decrease in intracellular cyclic AMP accumulation. The assay has been modeled on the cyclic AMP assay kit available from Amersham. This kit, in turn, is based on the assay created by Tovey et al. (1974). Briefly, the samples were prepared from Sprague Dawley rat (225-250 g) cortical slices. Slices were incubated with the test compound (drug), and then challenged with forskolin to induce cyclic AMP release. Following termination of the reaction by boiling, the slices were homogenized and centrifuged. Samples of supernatant were then incubated for 2-3 hours with a known quantity of [^3H]cAMP and a binding protein. When the incubation was complete, the bound cyclic AMP was separated from the free cyclic AMP by centrifugation with charcoal. The resulting supernatant (containing free cyclic AMP) was then analyzed by liquid scintillation counting. The amount of unbound cyclic AMP was calculated from a standard curve previously determined with various samples of free cyclic AMP. If the drugs tested inhibit forskolin-induced cyclic AMP accumulation, they are considered to be Group II/III agonists. Conversely, if they inhibit the decrease in forskolin-induced cyclic AMP accumulation caused by glutamate, they are considered to be Group II/III antagonists.

[2] = system: Group I metabotropic glutamate receptors (mGluRs); assay: Phosphatidylinositol assay in neonatal rat tissue slices (inositol phosphate accumulation); assay type: cell-based, Sprague Dawley rat; settings: for Group I Agonist: increase in intracellular free inositol phosphate accumulation; for Group I Agonist / Group I Antagonist: Yes/No; for EC50: inhibition of the inositol phosphate accumulation induced by ACPD, read-out: Group I Antagonist EC50; for Group I Antagonist: inhibits the inositol phosphate accumulation induced by ACPD
Method: Briefly, cross-chopped slices are prepared from neonatal Sprague Dawley rat tissue (age: p7-p14). The slices are pre-labelled with [3H] myo-inositol. Following pre-labelling, the slices are incubated with the test drugs and standard (known Group I agonists i.e. ACPD) for a period of 45 minutes. The incubation is terminated by the addition of chloroform/methanol/HCl (100:200:2). The resulting mixture is separated into two phases by the addition of chloroform and distilled water. The aqueous fraction is applied to ion exchange columns, and inositol phosphates are eluted using 800 mM Ammonium Formate/100 mM Formic Acid. The eluent is then analyzed using liquid scintillation counting. The amount of inositol phosphate accumulation is expressed as a percentage of that induced by ACPD. Group I metabotropic glutamate receptors (mGluRs) are positively coupled on inositol phosphate metabolism. Agonists at these receptors lead to an increase in intracellular free inositol phosphates, while antagonists inhibit the increase in intracellular free inositol phosphate induced by standard agonists (i.e. ACPD). Cross-chopped slices were prepared from neonatal Sprague Dawley rat tissue (age: p7-p14). The slices were pre-labelled with [^3H] myo-inositol. Following pre-labelling, the slices were incubated with the test compounds and standard (known Group I agonists i.e. ACPD) for a period of 45 minutes. The incubation was terminated by the addition of chloroform/methanol/HCl (100:200:2). The resulting mixture was separated into two phases by the addition of chloroform and distilled water. The aqueous fraction was applied to ion exchange columns, and inositol phosphates were eluted using 800 mM Ammonium Formate/100 mM Formic Acid. The eluent was then analyzed using liquid scintillation counting. The amount of inositol phosphate accumulation was expressed as a percentage of that induced by ACPD. If the drugs cause an increase in intracellular free inositol phosphate accumulation, they are considered to be Group I agonists. […]

mGluR1α receptor = molecular target: T1, mGluR1α receptor (Rattus norvegicus, UniProt P23385); assay: PI hydrolysis antagonist assay in Chinese hamster ovary cell lines expressing cloned mGluR1α; assay type: cell-based; settings: CHO cells expressing cloned mGluR1α; compound at 5 mM; 10 µM (L)-glutamic acid; FIG. 1
T1 construct: expressed in transfected cells; host or cells: Chinese hamster ovary (CHO) cells
Method: The Chinese hamster ovary cell lines expressing mGluR1α, mGlu R2 and mGluR4αreceptors have been described previously (Amarori and Nakanishi, Neuron 8, 757-765, 1992; Tanabe et al., Neuron 8, 169-179, 1992, and J. Neurochem. 63, 2038-2047, 1993). They are maintained at 37° C. in a humidified 5% CO2 incubator in Dubecco's Modified Eagle Medium (DMEM) containing a reduced concentration of(S)-glutamine (2 mM) and are supplemented with 1% proline, penicillin (100 U/mL), streptomycin ([…]) and 10% dialyzed fetal calf serum (all GIBCO, Paisley). Two days before assay 1.8×10^6 cells are evenly distributed into the wells of 24 well plates.
Phosphatidylinositol (PI) hydrolysis can be measured as described previously (Hayashi et al., Nature 366, 687-690,1992, and J. Neuroscience 14, 3370-3377, 1994). Briefly, the cells are labeled with [^3H]inositol (2 μCi/mL) 24 h prior to the assay. For agonist assays, the cells are incubated with test compound dissolved in phosphate-buffered saline (PBS)-LiC] for 20 min, and agonist activity is determined from the level of ^3H-labeled mono-, bis- and tris-inositol phosphates generated, as measured following ion-exchange chromatography, compared with the level generated in the absence of the test compound. […] The antagonist activity is then determined as the inhibitory effect of the (S)-Glu mediated response. […]

[3] = inhibition of the glutamate-caused decrease in forskolin-induced cyclic AMP accumulation, read-out: Group II/III Antagonist EC50
[4] = inhibition of forskolin-induced cyclic AMP accumulation, read-out: Group II/III Agonist EC50

T1 sequence (P23385 19-1199): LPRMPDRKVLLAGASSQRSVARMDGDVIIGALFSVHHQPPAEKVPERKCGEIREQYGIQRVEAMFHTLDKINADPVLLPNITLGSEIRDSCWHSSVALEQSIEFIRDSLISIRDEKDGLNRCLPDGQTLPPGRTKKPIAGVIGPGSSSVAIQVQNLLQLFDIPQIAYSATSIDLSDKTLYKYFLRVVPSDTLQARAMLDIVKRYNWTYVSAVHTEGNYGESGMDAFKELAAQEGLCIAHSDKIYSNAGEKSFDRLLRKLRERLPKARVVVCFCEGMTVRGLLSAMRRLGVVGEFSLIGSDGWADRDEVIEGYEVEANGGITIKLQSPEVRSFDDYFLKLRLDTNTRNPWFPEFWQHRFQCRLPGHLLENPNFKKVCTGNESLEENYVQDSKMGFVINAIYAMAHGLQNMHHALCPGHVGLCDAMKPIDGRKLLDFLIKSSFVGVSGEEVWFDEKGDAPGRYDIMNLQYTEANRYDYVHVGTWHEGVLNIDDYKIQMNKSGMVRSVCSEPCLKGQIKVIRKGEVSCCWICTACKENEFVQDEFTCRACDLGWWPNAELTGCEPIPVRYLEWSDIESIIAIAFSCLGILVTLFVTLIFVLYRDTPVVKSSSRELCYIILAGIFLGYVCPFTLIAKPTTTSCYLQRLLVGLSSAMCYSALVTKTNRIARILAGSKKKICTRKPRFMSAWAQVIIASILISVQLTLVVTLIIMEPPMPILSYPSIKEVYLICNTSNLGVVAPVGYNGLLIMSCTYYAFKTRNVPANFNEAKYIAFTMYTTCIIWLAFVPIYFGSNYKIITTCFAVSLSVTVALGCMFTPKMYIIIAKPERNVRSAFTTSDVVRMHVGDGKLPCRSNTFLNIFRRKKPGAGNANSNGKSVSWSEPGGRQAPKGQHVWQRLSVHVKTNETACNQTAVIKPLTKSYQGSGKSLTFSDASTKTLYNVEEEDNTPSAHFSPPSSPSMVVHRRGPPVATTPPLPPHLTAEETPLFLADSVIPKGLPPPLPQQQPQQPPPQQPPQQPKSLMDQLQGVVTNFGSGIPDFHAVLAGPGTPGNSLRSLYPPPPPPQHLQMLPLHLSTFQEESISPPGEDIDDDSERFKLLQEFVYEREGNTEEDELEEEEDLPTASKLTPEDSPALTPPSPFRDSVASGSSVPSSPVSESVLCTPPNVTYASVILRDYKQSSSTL

SMILES	Group II/III Agonist [1]	Group II/III Antagonist [1]	Group I Agonist [2]	EC50 [2] [nM]	Group I Antagonist [2]	antagonist activity: block of the increase in PI hydrolysis by (L)-glutamic acid at the mGluR1α receptor (mGluR1α receptor)	EC50 [1, 3] [nM]	EC50 [1, 4] [nM]
N[C@]1(C(=O)O)C[C@H](C(=O)O)c2ccccc21 [Compound 4a, Trans-1-aminoaindane-1,3-dicarboxylic acid]	No	No	No	480	Yes	effectively blocked		
NC(C(=O)O)C1CC(C(=O)O)c2ccccc21 (centres unmarked) [Compound 23, 1-[2-amino]-3-carboxyindaneacetic acid]	No	Yes	No		No		610	
NC(C(=O)O)C1c2ccccc2CC1CC(=O)O (centres unmarked) [Compound 18, 1-[2-amino]-2-indanediacetic acid]	Yes	Yes	No	14000	Yes		26	460
N[C@]1(C(=O)O)c2ccccc2C[C@H]1CC(=O)O (relative stereo) [Compound 9, Trans-1-amino-1-carboxyindane-2-acetic acid]				1100			34	
N[C@]1(C(=O)O)C[C@@H](CC(=O)O)c2ccccc21 (relative stereo) [Compound 13, Trans-1-amino-1-carboxyindane-3-acetic acid]				1.3				990
N[C@@]1(C(=O)O)C[C@H](C(=O)O)c2ccccc21 (stereo in doubt) [Compound 4b, Cis-1-aminoindane-1,3-dicarboxylic acid]								2100
